Data on 13 compounds can be found in ChEMBL document CHEMBL4028844, “Targeting the Receptor for Advanced Glycation Endproducts (RAGE): A Medicinal Chemistry Perspective” (J Med Chem, 2017).

In series [1] the target is T1, Advanced glycosylation end product-specific receptor (Homo sapiens, UniProt Q15109). Briefly: Binding affinity to human RAGE cytoplasmic domain by tryptophan fluorescence assay.
Series [2] is described as follows: Cytotoxicity against mouse HT22 cells assessed as cell survival at 10 uM after 18 hrs by MTT assay relative to control. Conditions: read-out: Survival. The class given is cell-based, HT-22.
For series [3], the target named is T1, Advanced glycosylation end product-specific receptor. Briefly: Inhibition of amyloid beta binding to biotin-labeled human RAGE domain V at 20 uM after 60 mins by ELISA relative to cotrol.
Series [4] has the same target. Briefly: Binding affinity to human C-terminal His-tagged RAGE domain V (24 to 125 residues) expressed in Escherichia coli BL21(DE3) by tryptophan fluorescence assay.
For series [5] the target is unchanged. Briefly: Inhibition of […] binding to RAGE (unknown origin) by ELISA. (In an ELISA, binding on a coated surface is turned into a signal by an enzyme label.)
For series [6] the target is unchanged. Briefly: Inhibition of amyloid beta binding to RAGE (unknown origin) by ELISA.
Series [7] has the same target. Briefly: Inhibition of CML binding to RAGE (unknown origin) by ELISA.
The target is the same in series [8]. Briefly: Binding affinity to human His-tagged RAGE domain VC1 expressed in Escherichia coli by fluorescence titration method.
Series [9] has as its target Advanced glycosylation end product-specific receptor (Rattus norvegicus, UniProt Q63495). Briefly: Binding affinity to Wistar rat His-tagged RAGE domain VC1 expressed in Escherichia coli by fluorescence titration method.
In series [10] the target is T1, Advanced glycosylation end product-specific receptor. Briefly: Inhibition of amyloid beta binding to human RAGE […] expressed in HEK293 cells after 10 mins by MST assay. The series is classed as cell-based.
Series [11] shares this target. Briefly: Displacement of [I125]amyloid beta (1 to 40) from human RAGE domain V expressed in CHO cells. The series is classed as cell-based.
Series [12] has the same target. Briefly: Inhibition of […] binding to human RAGE domain V expressed in CHO cells. The class given is cell-based.
Series [13] has the same target. Briefly: Inhibition of HMGB1 binding to human RAGE domain V expressed in CHO cells. The class given is cell-based.

Some results are limits rather than exact numbers.

What is called Kd is the constant that tells how readily two partners part at equilibrium. Read a low Kd as higher affinity. A word on the inhibition: it is how much of the control response was suppressed. A word on the IC50: it is the concentration needed to halve the response being measured. Low readings indicate higher potency, high ones lower potency. Broadly, the Ki is a dissociation constant, usually derived from enzyme kinetics or from competition with a known ligand. Read a low Ki as higher affinity.

T1 sequence (Q15109 whole entry, the tested form may be a part): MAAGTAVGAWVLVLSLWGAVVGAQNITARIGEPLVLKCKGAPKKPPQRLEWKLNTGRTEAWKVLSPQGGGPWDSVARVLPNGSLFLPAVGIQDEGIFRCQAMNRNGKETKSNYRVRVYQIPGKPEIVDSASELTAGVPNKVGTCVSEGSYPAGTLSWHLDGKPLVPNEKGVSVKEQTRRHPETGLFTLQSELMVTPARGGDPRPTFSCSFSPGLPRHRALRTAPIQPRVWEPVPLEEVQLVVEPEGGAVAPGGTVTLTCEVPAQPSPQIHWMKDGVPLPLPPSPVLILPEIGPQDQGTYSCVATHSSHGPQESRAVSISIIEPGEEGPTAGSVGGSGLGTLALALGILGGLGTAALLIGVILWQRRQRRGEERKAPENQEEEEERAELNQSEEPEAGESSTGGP
Advanced glycosylation end product-specific receptor (Rattus norvegicus, UniProt Q63495), sequence (Q63495 whole entry, the tested form may be a part): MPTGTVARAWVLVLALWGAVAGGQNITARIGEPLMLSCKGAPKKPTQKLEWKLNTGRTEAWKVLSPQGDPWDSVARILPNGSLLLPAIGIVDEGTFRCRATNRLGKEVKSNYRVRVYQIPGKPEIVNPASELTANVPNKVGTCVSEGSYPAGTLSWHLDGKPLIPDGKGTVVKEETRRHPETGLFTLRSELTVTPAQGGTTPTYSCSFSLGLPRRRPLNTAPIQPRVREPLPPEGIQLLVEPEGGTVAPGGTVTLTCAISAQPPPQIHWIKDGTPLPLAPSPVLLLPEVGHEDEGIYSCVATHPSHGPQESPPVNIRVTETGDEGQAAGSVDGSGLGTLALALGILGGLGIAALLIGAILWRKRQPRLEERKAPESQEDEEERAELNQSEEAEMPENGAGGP

In series [1], `COC(=O)c1cc(O)c(O)cc1NC(=O)C1Oc2ccccc2OC1C` (stereo unspecified) returned a Kd of 2 nM.
Consider `CCCCOc1cc(OCCCN(CC)CC)ccc1NC(=O)c1cc(-c2ccc(Oc3ccc(F)cc3)cc2)nn1C`, for which, in series [2], the viability at 18 h, 10 µM came out at 10.3%.
The compound `CCN(CC)CCOc1ccc(OC)cc1NC(=O)c1nc(-c2ccc(F)cc2)cc(-c2ccc(F)cc2)n1` displayed an inhibition in series [3] of more than 4%. Further, in series [2], the viability at 18 h, 10 µM was 100%.
Consider `Cc1c(Cl)cccc1NC(=O)CNC(=O)c1ccccc1F`, for which, in series [1], the Kd was 32 nM.
Compound `CC1NC(NCCC[C@H](N)C(=O)O)=NC1=O` (stereo partly specified) returned a Kd in [4] of 30 to 40 nM.
Consider `CCCCOc1cc(OCCCN(CC)CC)ccc1NC(=O)C(CC1CCN(Cc2ccccc2)CC1)NC(=O)OCC1c2ccccc2-c2ccccc21` (stereo unspecified), for which the concentration for half-maximal inhibition (IC50) in series [5], in [6] and in series [7] was less than 500 nM throughout.
`Cc1nc2ccccc2n1CC(O)Cn1c2ccccc2c2ccccc21` (stereo unspecified) had a dissociation constant Kd in series [1] of 1 nM.
`COc1cc(SC)ccc1C(=O)Nc1cccc(C)n1`: the affinity in [1], expressed as Kd, was 6 nM.
Turning to `CCN(CC)CCOc1cccc(Nc2nc(-c3ccc(Cl)cc3)cc(-c3ccc(Cl)cc3)n2)c1`, the viability at 18 h, 10 µM in series [2] was found to be 37.3%.
Turning to `O=C(O)c1cccnc1C(=O)O` [QUINOLINIC ACID], the equilibrium dissociation constant (Kd) in [8] and in [9] was 43 nM in each case.
As to `CCCCn1c([C@@H](Cc2ccc(OCCc3ccc(Cl)cc3)cc2)NC(=O)OC(C)(C)C)nc2cc(OCCCN(CC)CC)ccc21`, the IC50 in series [5] was less than 500 nM; in series [6], less than 500 nM; in series [7], less than 4000 nM.
`O=C1CCC[C@@H]2[C@H]3CCCN4CCC[C@@H](CN12)[C@@H]34` [MATRINE]: the Kd in series [10] worked out at 24 mM. This counts as millimolar.
On to `O=C(c1ccc(Cl)cc1)N(Cc1ccccc1)C1CCCCC1`, for which the Ki was determined as 25 nM in [11], 230 nM in series [12] and 148 nM in series [13].
